According to patent US6083915A, “Method for treating liver cancer” (Biomeasure, Inc., priority 1991, dated 2000):

Test system: M5123 hepatoma
Type: in vivo
Conditions: for % Test/Control / Tumor Weight (mg) Day 18: 100 μg/inj., s.c., b.i.d., q.d. 1-20; for % Test/Control: day 18; for Tumor Weight (mg) Day 18: mean ± s.e.m.
Excerpt: The M5123 hepatoma cells, obtained from Dr. H. P. Morris at the National Cancer Institute, were induced in the Buffalo strain of rats by ingestion of N-(2-fluorenyl-phthalamic acid) and established in serial transplantation. Implantation of the M5123 hepatoma cells in an immunodeficient athymic mouse reproducibly results in progressively growing, lethal tumor.
In contrast to the subrenal capsule assay, in the subcutaneous assay, tumor xenografts are implanted subcutaneously, rather than under the subrenal capsule, and treatment can be initiated at any selected time after the implantation.
In this assay, tumors were implanted subcutaneously in the right flank of athymic female mice and test compounds, BIM-26159, BIM-26187, BIM-26189, BIM-26218, BIM-26223 and BIN-26228, and control were injected subcutaneously in the left flank. For the structures of BIM-26159, BIM-26187, BIM-26189, see "Summary of the Invention" above. The structures of BIM-26223 and BIM-26228 are as follows:
Response of an implanted tumor to the treatment was monitored as follows. The length and width of the tumor were first measured using sensitive Vernier calipers. Tumor weight was then calculated based on the measurements as follows: [length (mm)×width (mm)^2 ]/2 mg. In addition to tumor size or weight, this assay system permits the parameter of "lag time", i.e., the effect of early treatment on the growth potential of tumors to reach a certain size.
In one experiment, thirty two mice were implanted subcutaneously with M5123 hepatoma xenografts on day 0 and randomized into four groups of eight animals per group. The bombesin analog BIM-26159 was administered at 250, 50, 10 μg per injection, S.C., b.i.d.,q.d. 1-18.
In another experiment, we tested the activity of five bombesin analogs, i.e., BIM-26187, BIM-26189, BIM-26218, BIM-26223 and BIM-26228, over a period of 18 days. Forty mice were implanted s.c. with M5123 hepatoma xenografts on day 0, and the randomized into ten animals in the control group and six animals per test group. All compounds were administered at 100 μg per injection, s.c., b.i.d., q.d. 1-18.

For `CC(C)C[C@H](NC(=O)[C@H](CC(C)C)NC(=O)[C@H](Cc1c[nH]cn1)NC(=O)CNC(=O)[C@@H](NC(=O)[C@H](C)NC(=O)[C@H](Cc1c[nH]c2ccccc12)NC(=O)[C@H](CCC(N)=O)NC(=O)[C@H](N)Cc1ccccc1)C(C)C)C(N)=O` [BIM-26187, D-Phe-Gln-Trp-Ala-Val-Gly-His-Leu-Leu-NH2], the “% Test/Control” value was 83% and the “Tumor Weight (mg) Day 18” value was 482.8 ± 175.0 mg.
“D-Phe-Gln-Trp-Ala-Val-Gly-CHxAla-Leu-NH2 [BIM-26228]” was tested, and the “effect on growth of the tumor cells (in words)” value (100 μg per injection, over 18 days) was “slightly stimulated growth”, the “% Test/Control” value was 115% and the “Tumor Weight (mg) Day 18” value was 667.2 ± 181.6 mg.
